Data: patent US20240101556A1, “COMPOUNDS AND COMPOSITIONS FOR TREATING CONDITIONS ASSOCIATED WITH STING ACTIVITY” (IFM Due, Inc., priority 2021, published 2024)
pEC50: −log10 of the molar value.

Biological target: T1, hSTING (Homo sapiens, UniProt Q86WV6, G230A/H232R/R293Q/R71H)
T1 construct: host or cells: THP1-Dual KO-IFNAR2 cells (human monocytic line)
Assay: STING reporter assay (luciferase) in THP1-Dual KO-IFNAR2 cells stimulated with 2′3′cGAMP
Assay type: cell-based
Details: 2′3′cGAMP 15 μM with Lipofectamine 2000, 24 h, luciferase reporter activity, compounds 0.0017-100 μM
Experimental: STING pathway activation by the compounds described herein was measured using THP1-Dual™ cells (KO-IFNAR2).
THP1-Dual™ KO-IFNAR2 Cells (obtained from invivogen) were maintained in RPMI, 10% FCS, 5 ml P/S, 2 mM L-glut, 10 mM Hepes, and 1 mM sodium pyruvate. Compounds were spotted in empty 384 well tissue culture plates (Greiner 781182) by Echo for a final concentration of 0.0017-100 μM. Cells were plated into the TC plates at 40 μL per well, 2×10E6 cells/mL. For activation with STING ligand, 2′3′cGAMP (MW 718.38, obtained from Invivogen), was prepared in Optimem media.
The following solutions were prepared for each 1×384 plate: • Solution A: 2 mL Optimem with one of the following stimuli: • 60 μL of 10 mM 2′3′cGAMP→150 μM stock • Solution B: 2 mL Optimem with 60 μL Lipofectamine 2000→Incubate 5 min at RT
2 mL of solution A and 2 m1 Solution B was mixed and incubated for 20 min at room temperature (RT). 20 μL of transfection solution (A+B) was added on top of the plated cells, with a final 2′3′cGAMP concentration of 15 μM. The plates were then centrifuged immediately at 340 g for 1 minute, after which they were incubated at 37° C., 5% CO2, >98% humidity for 24 h. Luciferase reporter activity was then measured. EC50 values were calculated by using standard methods known in the art.
Luciferase reporter assay: 10 μL of supernatant from the assay was transferred to white 384-plate with flat bottom and squared wells. One pouch of QUANTI-Luc™ Plus was dissolved in 25 mL of water. 100 μL of QLC Stabilizer per 25 mL of QUANTI-Luc™ Plus solution was added. 50 μL of QUANTI-Luc™ Plus/QLC solution per well was then added. Luminescence was measured on a Platereader (e.g., Spectramax I3X (Molecular Devices GF3637001)).
Luciferase reporter activity was then measured. EC50 values were calculated by using standard methods known in the art.

T1 sequence (Q86WV6 whole entry R71H/G230A/H232R/R293Q): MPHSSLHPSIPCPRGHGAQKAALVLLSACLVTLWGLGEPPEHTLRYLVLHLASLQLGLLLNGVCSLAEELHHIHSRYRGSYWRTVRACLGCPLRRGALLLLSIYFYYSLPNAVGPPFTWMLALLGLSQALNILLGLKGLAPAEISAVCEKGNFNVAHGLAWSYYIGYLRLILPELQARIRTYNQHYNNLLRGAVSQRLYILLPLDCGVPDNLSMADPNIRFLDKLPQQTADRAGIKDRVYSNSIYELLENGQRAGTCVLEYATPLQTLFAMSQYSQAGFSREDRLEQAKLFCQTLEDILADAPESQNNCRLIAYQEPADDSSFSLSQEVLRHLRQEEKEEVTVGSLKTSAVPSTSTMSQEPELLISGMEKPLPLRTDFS

Structure (SMILES) | pEC50
CN1CCN(c2ccc3[nH]cc(NC(=O)Nc4ccc(C(F)(F)F)cc4)c3n2)CC1 [Compound 125, 1-(5-(4-methylpiperazin-1-yl)-1H-pyrrolo[3,2-b]pyridin-3-yl)-3-(4-(trifluoromethyl)phenyl)urea] | 4.00 to 5.30
CCN1CCN(c2ccc3[nH]cc(NC(=O)Nc4ccc(C(F)(F)F)cc4)c3n2)CC1 [Compound 127, 1-(5-(4-ethylpiperazin-1-yl)-1H-pyrrolo[3,2-b]pyridin-3-yl)-3-(4-(trifluoromethyl)phenyl)urea] | 4.00 to 5.30
CC(C)c1cnn(-c2ccc3[nH]cc(NC(=O)Nc4ccc(C(F)(F)F)cc4)c3n2)c1 [Compound 131, 1-(5-(4-isopropyl-1H-pyrazol-1-yl)-1H-pyrrolo[3,2-b]pyridin-3-yl)-3-(4-(trifluoromethyl)phenyl)urea] | 4.00 to 5.30
O=C(Nc1ccc(C(F)(F)F)cc1)Nc1c[nH]c2ccc(N3CCN(Cc4cccnc4)CC3)nc12 [Compound 119, 3-(5-{4-[(pyridin-3-yl)methyl]piperazin-1-yl}-1H-pyrrolo[3,2-b]pyridin-3-yl)-1-[4-(trifluoromethyl)phenyl]urea] | 5.30 to 6.00
CC(C)c1ccn(-c2ccc3[nH]cc(NC(=O)Nc4ccc(C(F)(F)F)cc4)c3n2)n1 [Compound 132, 1-(5-(3-isopropyl-1H-pyrazol-1-yl)-1H-pyrrolo[3,2-b]pyridin-3-yl)-3-(4-(trifluoromethyl)phenyl)urea] | 4.00 to 5.30
O=C(Nc1ccc(C(F)(F)F)cc1)Nc1c[nH]c2ccc(N3CCN(C4CCC(F)(F)CC4)CC3)nc12 [Compound 116, 3-{5-[4-(4,4-difluorocyclohexyl)piperazin-1-yl]-1H-pyrrolo[3,2-b]pyridin-3-yl}-1-[4-(trifluoromethyl)phenyl]urea] | 4.00 to 5.30
O=C(Nc1ccc(C(F)(F)F)cc1)Nc1c[nH]c2ccc(N3CCN(CC(F)(F)F)CC3)nc12 [Compound 118, 1-(5-(4-(2,2,2-trifluoroethyl)piperazin-1-yl)-1H-pyrrolo[3,2-b]pyridin-3-yl)-3-(4-(trifluoromethyl)phenyl)urea] | 4.00 to 5.30
CC(CC(F)(F)F)N1CCN(c2ccc3[nH]cc(NC(=O)Nc4ccc(C(F)(F)F)cc4)c3n2)CC1 (stereo not shown) [Compound 114, 3-{5-[4-(4,4,4-trifluorobutan-2-yl)piperazin-1-yl]-1H-pyrrolo[3,2-b]pyridin-3-yl}-1-[4-(trifluoromethyl)phenyl]urea] | 4.00 to 5.30
O=C(Nc1ccc(C(F)(F)F)cc1)Nc1c[nH]c2ccc(N3CCN(CCC(F)(F)F)CC3)nc12 [Compound 123, 1-[4-(trifluoromethyl)phenyl]-3-{5-[4-(3,3,3-trifluoropropyl)piperazin-1-yl]-1H-pyrrolo[3,2-b]pyridin-3-yl}urea] | 4.00 to 5.30
O=C(Nc1ccc(C(F)(F)F)cc1)Nc1c[nH]c2ccc(N3CCN(Cc4ccccc4)CC3)nc12 [Compound 121, 3-[5-(4-benzylpiperazin-1-yl)-1H-pyrrolo[3,2-b]pyridin-3-yl]-1-[4-(trifluoromethyl)phenyl]urea] | 4.00 to 5.30
CC(C)OC1CCC(N2CCN(c3ccc4[nH]cc(NC(=O)Nc5ccc(C(F)(F)F)cc5)c4n3)CC2)CC1 (stereo not shown) [Compound 113, 3-(5-{4-[4-(propan-2-yloxy)cyclohexyl]piperazin-1-yl}-1H-pyrrolo[3,2-b]pyridin-3-yl)-1-[4-(trifluoromethyl)phenyl]urea] | 4.00 to 5.30
CCN1CCN(c2ccc3[nH]cc(NC(=O)Nc4ccc(C(F)(F)F)c(Cl)c4)c3n2)CC1 [Compound 126, 1-(3-chloro-4-(trifluoromethyl)phenyl)-3-(5-(4-ethylpiperazin-1-yl)-1H-pyrrolo[3,2-b]pyridin-3-yl)urea] | 4.00 to 5.30
CC(C)(C)OC(=O)N1CCN(c2ccc3[nH]cc(NC(=O)Nc4ccc(C(F)(F)F)cc4)c3n2)CC1 [Compound 128, tert-butyl 4-(3-(3-(4-(trifluoromethyl)phenyl)ureido)-1H-pyrrolo[3,2-b]pyridin-5-yl)piperazine-1-carboxylate] | 4.00 to 5.30
O=C(Nc1ccc(C(F)(F)F)cc1)Nc1c[nH]c2ccc(N3CCN(C4CCC(C(F)(F)F)CC4)CC3)nc12 (stereo not shown) [Compound 115, 3-(5-{4-[4-(trifluoromethyl)cyclohexyl]piperazin-1-yl}-1H-pyrrolo[3,2-b]pyridin-3-yl)-1-[4-(trifluoromethyl)phenyl]urea] | 4.00 to 5.30
O=C(Nc1ccc(C(F)(F)F)cc1)Nc1c[nH]c2ccc(N3CCN(Cc4ccccn4)CC3)nc12 [Compound 120, 3-(5-{4-[(pyridin-2-yl)methyl]piperazin-1-yl}-1H-pyrrolo[3,2-b]pyridin-3-yl)-1-[4-(trifluoromethyl)phenyl]urea] | 4.00 to 5.30
CC(C)CN1CCN(c2ccc3[nH]cc(NC(=O)Nc4ccc(C(F)(F)F)cc4)c3n2)CC1 [Compound 124, 3-{5-[4-(2-methylpropyl)piperazin-1-yl]-1H-pyrrolo[3,2-b]pyridin-3-yl}-1-[4-(trifluoromethyl)phenyl]urea] | 4.00 to 5.30
O=C(Nc1ccc(C(F)(F)F)cc1)Nc1c[nH]c2ccc(N3CCN(c4ccccc4)CC3)nc12 [Compound 129, 1-(5-(4-phenylpiperazin-1-yl)-1H-pyrrolo[3,2-b]pyridin-3-yl)-3-(4-(trifluoromethyl)phenyl)urea] | 6.00 to 6.70
COCCN1CCN(c2ccc3[nH]cc(NC(=O)Nc4ccc(C(F)(F)F)cc4)c3n2)CC1 [Compound 122, 3-{5-[4-(2-methoxyethyl)piperazin-1-yl]-1H-pyrrolo[3,2-b]pyridin-3-yl}-1-[4-(trifluoromethyl)phenyl]urea] | 4.00 to 5.30
O=C(Nc1ccc(C(F)(F)F)cc1)Nc1c[nH]c2ccc(N3CCN(CC4CC4)CC3)nc12 [Compound 117, 3-{5-[4-(cyclopropylmethyl)piperazin-1-yl]-1H-pyrrolo[3,2-b]pyridin-3-yl}-1-[4-(trifluoromethyl)phenyl]urea] | 4.00 to 5.30
